One data set deals with T1, Gal-4 hPPARα (Homo sapiens, UniProt Q07869).
T1 construct: Plasmids pGal4-hPPARα, pGal4-hPPARγ, pGal4-hPPARδ and pG5-TK-pGL3 were constructed as previously described by Staels, Bart, et al., Nature 1998 Jun; 25
T1 sequence (Q07869 200-468 limits assumed): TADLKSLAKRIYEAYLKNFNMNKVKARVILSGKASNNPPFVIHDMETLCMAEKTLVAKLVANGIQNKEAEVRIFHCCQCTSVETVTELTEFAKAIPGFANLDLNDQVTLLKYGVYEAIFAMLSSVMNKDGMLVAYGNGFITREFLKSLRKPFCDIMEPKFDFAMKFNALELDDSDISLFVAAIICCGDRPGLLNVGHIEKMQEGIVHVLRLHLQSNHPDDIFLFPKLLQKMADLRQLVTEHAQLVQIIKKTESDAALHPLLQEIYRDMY
The experiment in a line: Gal4-hPPARα transient transfection reporter assay in Cos cells. The following applies: luciferase reporter, 24 hours with compound, scale 1-5, read-out: Gal-4 hPPAR α EC50 (scaled number). It counts as cell-based. In short, it runs like this:
(§1)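 Cos cells transiently co-transfected with Gal4-hPPAR expression plasmid, pG5-TK-pGL3 luciferase reporter and β-galactosidase control, then treated 24 h with increasing compound concentrations in DMEM containing 0.2% FCS. Luciferase normalised to β-galactosidase; EC50 from curve fit, at least three experiments.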

The next data set deals with pig liver esterase. In words: Metabolism studies using pig liver esterase. It counts as in vitro ADME. The settings on record: 37° C. The procedure: The esterase-mediated metabolism of these compounds was studied using commercially available pig liver esterase in the presence and absence of human plasma proteins. The disappearance of parent was monitored over the time course of the incubations using a LC-UV detection system.
A stock solution and working stock solution was prepared for each proprietary compound as described for the human liver microsomal incubations. Working solutions of pig liver esterase in potassium phosphate buffer ([…], pH 7.4) and pig liver esterase in human plasma protein were prepared by dissolving pig liver esterase (2.51 mg) in the phosphate buffer or plasma protein solutions, respectively.
A set of three Eppendorf microfuge tubes (1.5 mL) was appropriately labeled. To each tube was added 1.5 mL of phosphate buffer, pig liver esterase in buffer, or pig liver esterase in human plasma protein solution. These solutions were pre-incubated (37° C., 900 rpm) and the reactions were initiated by adding an aliquot (37.5 μL) of the working solution of proprietary compound to each tube. An aliquot (100 μL) from each tube was removed at time 0, 5, 30, 60, and 120 min and added to a tube containing acetonitrile (200 μL) to stop the reaction.
The samples were centrifuged at 14000 g for 15 minutes at 4° C. The supernatant was transferred to clean labeled HPLC injection vials and stored at −80° C. until analyzed. An aliquot of the supernatant (25 μL) was injected onto the LC-UV system for analysis.
Half lives of a sample of test articles is noted in the following table. Half life was determined in the presence or absence of plasma.

The next data set deals with T2, Gal-4 hPPARβ/δ (Homo sapiens, UniProt Q03181).
T2 construct: Plasmids pGal4-hPPARα, pGal4-hPPARγ, pGal4-hPPARδ and pG5-TK-pGL3 were constructed as previously described by Staels, Bart, et al., Nature 1998 Jun; 25
T2 sequence (Q03181 171-441 limits assumed): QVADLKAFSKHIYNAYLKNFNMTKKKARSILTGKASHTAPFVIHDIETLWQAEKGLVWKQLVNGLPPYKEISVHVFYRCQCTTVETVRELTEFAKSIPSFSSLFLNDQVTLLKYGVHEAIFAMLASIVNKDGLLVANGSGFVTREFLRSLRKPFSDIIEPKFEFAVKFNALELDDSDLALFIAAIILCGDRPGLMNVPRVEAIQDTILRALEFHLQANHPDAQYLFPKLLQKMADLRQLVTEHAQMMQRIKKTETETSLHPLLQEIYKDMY
In words: Gal4-hPPARδ transient transfection reporter assay in Cos cells. The class given is cell-based. The settings on record: luciferase reporter, 24 hours with compound, scale 1-5, read-out: Gal-4 hPPAR β/δ EC50 (scaled number). In short, it runs like this: as §1
A general note: In a reporter assay the amount or activity of a reporter protein is the signal.

The target of another data set is T3, Gal-4 hPPARγ (Homo sapiens, UniProt P37231).
T3 construct: Plasmids pGal4-hPPARα, pGal4-hPPARγ, pGal4-hPPARδ and pG5-TK-pGL3 were constructed as previously described by Staels, Bart, et al., Nature 1998 Jun; 25
T3 sequence (P37231 238-505 limits assumed): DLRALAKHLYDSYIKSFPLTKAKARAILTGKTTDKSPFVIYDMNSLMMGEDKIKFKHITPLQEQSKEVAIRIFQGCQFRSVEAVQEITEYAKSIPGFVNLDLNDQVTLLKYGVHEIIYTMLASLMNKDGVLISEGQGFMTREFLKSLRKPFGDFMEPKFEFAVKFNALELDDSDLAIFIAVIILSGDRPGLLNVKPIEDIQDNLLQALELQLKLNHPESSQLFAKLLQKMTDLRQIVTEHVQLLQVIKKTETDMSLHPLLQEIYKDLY
In words: Gal4-hPPARγ transient transfection reporter assay in Cos cells. The class given is cell-based. The following applies: luciferase reporter, 24 hours with compound, scale 1-5, read-out: Gal-4 hPPAR γ EC50 (scaled number). In short, it runs like this: as §1

Where [1] appears, read: pig liver esterase in human plasma protein solution, read-out: Pig Liver Esterase (t1/2 min.) (+) Plasma.
Where [2] appears, read: pig liver esterase in phosphate buffer pH 7.4, no plasma, read-out: Pig Liver Esterase (t1/2 min.) (−) Plasma.
[3] abbreviates: pig liver esterase in human plasma protein solution.

Like-named read-outs stand apart in the source and are kept apart here.

On to `Cc1ccc(Cn2cc(COC(=O)c3ccc(SC(C)(C)C(=O)O)cc3)cn2)cc1` [Compound 3, 2-methyl-2-(4-(((1-(4-methylbenzyl)-1H-pyrazol-4-yl)methoxy)carbonyl)phenylthio)propanoic acid], for which the EC50 at Gal-4 hPPARα is 51 to 200 nM; at Gal-4 hPPARβ/δ, over 1000 nM; on Gal-4 hPPARγ, over 1000 nM. Besides, the half-life at 4.9 µM in the data set with pig liver esterase (setting [1]) is over 120 min; with pig liver esterase (setting [2]) it was 19 min.

For the molecule `CCCc1nn(Cc2ccc(C(F)(F)F)cc2)cc1COC(=O)c1ccc(SC(C)(C)C(=O)O)cc1` [Compound 12, 2-methyl-2-(4-(((3-propyl-1-(4-(trifluoromethyl)benzyl)-1H-pyrazol-4-yl)methoxy)carbonyl)phenylthio)propanoic acid], the figures for the EC50 at Gal-4 hPPARα, at Gal-4 hPPARβ/δ and on Gal-4 hPPARγ were 51 to 200 nM, over 1000 nM and over 1000 nM, respectively. Further, the half-life at 4.9 µM is 61 min with pig liver esterase (setting [1]) and under 5 min in the data set with pig liver esterase (setting [2]).

`Cc1ccc(Cn2cc(COC(=O)c3ccc(SC(C)(C)C(=O)O)cc3)nn2)cc1` [Compound 60, 2-methyl-2-(4-(((1-(4-methylbenzyl)-1H-1,2,3-triazol-4-yl)methoxy)carbonyl)phenylthio)propanoic acid]: the EC50 at Gal-4 hPPARα is 1 to 50 nM; at Gal-4 hPPARβ/δ, over 1000 nM; on Gal-4 hPPARγ, over 1000 nM. Also, the figures for the half-life at 4.9 µM with pig liver esterase (setting [1]) and with pig liver esterase (setting [2]) were 89 min and 31 min, respectively.

In the case of `CC(C)(Sc1ccc(C(=O)OCc2cn(Cc3ccc(C(F)(F)F)cc3)nn2)cc1)C(=O)O` [Compound 67, 2-methyl-2-(4-(((1-(4-(trifluoromethyl)benzyl)-1H-1,2,3-triazol-4-yl)methoxy)carbonyl)phenylthio)propanoic acid], the EC50 on Gal-4 hPPARα is 1 to 50 nM; on Gal-4 hPPARβ/δ, over 1000 nM; on Gal-4 hPPARγ, over 1000 nM. The half-life at 4.9 µM was determined as 121 min in the data set with pig liver esterase (setting [1]) and 21 min in the data set on pig liver esterase (setting [2]).

Regarding `CC(C)(Sc1ccc(C(=O)OCc2cn(Cc3ccc(C(C)(C)C)cc3)nn2)cc1)C(=O)O` [Compound 69, 2-(4-(((1-(4-tert-butylbenzyl)-1H-1,2,3-triazol-4-yl)methoxy)carbonyl)phenylthio)-2-methylpropanoic acid], the EC50 at Gal-4 hPPARα is 1 to 50 nM; on Gal-4 hPPARβ/δ, over 1000 nM; on Gal-4 hPPARγ it was over 1000 nM. Further, the figures for the half-life at 4.9 µM with pig liver esterase (setting [1]) and in the data set on pig liver esterase (setting [2]) were 126 min and 14 min, respectively.

On to `COC(c1ccc(Cn2cc(COC(=O)c3ccc(SC(C)(C)C(=O)O)cc3)nn2)cc1)(C(F)(F)F)C(F)(F)F` [Compound 75, 2-(4-(((1-(4-(1,1,1,3,3,3-hexafluoro-2-methoxypropan-2-yl)benzyl)-1H-1,2,3-triazol-4-yl)methoxy)carbonyl)phenylthio)-2-methylpropanoic acid], for which the EC50 at Gal-4 hPPARα is 51 to 200 nM; at Gal-4 hPPARβ/δ, over 1000 nM; at Gal-4 hPPARγ it was over 1000 nM. Also, the half-life at 4.9 µM in the data set on pig liver esterase (setting [1]) was 160 min; with pig liver esterase (setting [2]) it was 29 min.

In the case of `Cc1ccc(Cn2cc([C@@H](C)OC(=O)c3ccc(SC(C)(C)C(=O)O)cc3)nn2)cc1` [Compound 87, (R)-2-methyl-2-(4-((1-(1-(4-methylbenzyl)-1H-1,2,3-triazol-4-yl)ethoxy)carbonyl)phenylthio)propanoic acid], the figures for the EC50 on Gal-4 hPPARα, at Gal-4 hPPARβ/δ and on Gal-4 hPPARγ were 1 to 50 nM, over 1000 nM and over 1000 nM, respectively. Further, the half-life at 4.9 µM with pig liver esterase (setting [1]) stood at 83 min; with pig liver esterase (setting [2]) it was 19 min.

On to `CC(C)(Sc1ccc(C(=O)OCCc2cn(Cc3ccc(C(F)(F)F)cc3)nn2)cc1)C(=O)O` [Compound 91, 2-methyl-2-(4-((2-(1-(4-(trifluoromethyl)benzyl)-1H-1,2,3-triazol-4-yl)ethoxy)carbonyl)phenylthio)propanoic acid], for which the results for the EC50 at Gal-4 hPPARα, on Gal-4 hPPARβ/δ and at Gal-4 hPPARγ were 201 to 999 nM, over 1000 nM and over 1000 nM, respectively. The half-life at 4.9 µM with pig liver esterase (setting [1]) is over 120 min; in the data set with pig liver esterase (setting [2]) it was 64 min.

In the case of `CCCn1c(COC(=O)c2ccc(OC(C)(C)C(=O)O)cc2)nn(Cc2ccc(C(C)(C)C)cc2)c1=O` [Compound 150, 2-(4-(((1-(4-tert-butylbenzyl)-5-oxo-4-propyl-4,5-dihydro-1H-1,2,4-triazol-3-yl)methoxy)carbonyl)phenoxy)-2-methylpropanoic acid], the results for the EC50 at Gal-4 hPPARα, on Gal-4 hPPARβ/δ and on Gal-4 hPPARγ were 1 to 50 nM, over 1000 nM and over 1000 nM, respectively. Besides, the “Pig Liver Esterase (t1/2 min.) (+) Plasma” value (shortened to “Pig Liver Esterase”) with pig liver esterase (setting [3]) was “Stable”. In addition, in the data set with pig liver esterase (setting [2]), the half-life at 4.9 µM came out at 31 min.

Take `CCCCCCn1c(COC(=O)c2ccc(OC(C)(C)C(=O)O)cc2)nn(Cc2ccc(C)cc2)c1=O` [Compound 151, 2-(4-(((4-hexyl-1-(4-methylbenzyl)-5-oxo-4,5-dihydro-1H-1,2,4-triazol-3-yl)methoxy)carbonyl)phenoxy)-2-methylpropanoic acid]: the EC50 at Gal-4 hPPARα was 1 to 50 nM; on Gal-4 hPPARβ/δ it was over 1000 nM; at Gal-4 hPPARγ, over 1000 nM. For the same molecule, the “Pig Liver Esterase” value in the data set with pig liver esterase (setting [3]) is reported as “Stable”. For the same molecule, in the data set with pig liver esterase (setting [2]), the half-life at 4.9 µM was 31 min.

Take `CCCCCCCCn1c(COC(=O)c2ccc(OC(C)(C)C(=O)O)cc2)nn(Cc2ccc(C)cc2)c1=O` [Compound 152, 2-methyl-2-(4-(((1-(4-methylbenzyl)-4-octyl-5-oxo-4,5-dihydro-1H-1,2,4-triazol-3-yl)methoxy)carbonyl)phenoxy)propanoic acid]: the results for the EC50 at Gal-4 hPPARα, on Gal-4 hPPARβ/δ and at Gal-4 hPPARγ were 51 to 200 nM, over 1000 nM and over 1000 nM, respectively. Further, the “Pig Liver Esterase” value in the data set with pig liver esterase (setting [3]) is “Stable”. For the same molecule, in the data set on pig liver esterase (setting [2]), the half-life at 4.9 µM amounted to 30 min.

`CCCn1c(COC(=O)c2ccc(SC(C)(C)C(=O)O)cc2)nn(Cc2ccc(C(C)(C)C)cc2)c1=O` [Compound 159, 2-(4-(((1-(4-tert-butylbenzyl)-5-oxo-4-propyl-4,5-dihydro-1H-1,2,4-triazol-3-yl)methoxy)carbonyl)phenylthio)-2-methylpropanoic acid]: the EC50 is 1 to 50 nM on Gal-4 hPPARα, over 1000 nM on Gal-4 hPPARβ/δ and over 1000 nM at Gal-4 hPPARγ. Also, the half-life at 4.9 µM in the data set on pig liver esterase (setting [1]) came to 97 min; in the data set on pig liver esterase (setting [2]), 3 min.

Take `CCCCCCn1c(COC(=O)c2ccc(SC(C)(C)C(=O)O)cc2)nn(Cc2ccc(C)cc2)c1=O` [Compound 160, 2-(4-(((4-hexyl-1-(4-methylbenzyl)-5-oxo-4,5-dihydro-1H-1,2,4-triazol-3-yl)methoxy)carbonyl)phenylthio)-2-methylpropanoic acid]: the EC50 on Gal-4 hPPARα is 1 to 50 nM; at Gal-4 hPPARβ/δ it was over 1000 nM; at Gal-4 hPPARγ it was 51 to 200 nM. Moreover, the half-life at 4.9 µM in the data set with pig liver esterase (setting [1]) is over 120 min; with pig liver esterase (setting [2]), under 5 min.

Turning to `CCCCCCCCn1c(COC(=O)c2ccc(SC(C)(C)C(=O)O)cc2)nn(Cc2ccc(C)cc2)c1=O` [Compound 161, 2-methyl-2-(4-(((1-(4-methylbenzyl)-4-octyl-5-oxo-4,5-dihydro-1H-1,2,4-triazol-3-yl)methoxy)carbonyl)phenylthio)propanoic acid], the EC50 was 1 to 50 nM on Gal-4 hPPARα, 51 to 200 nM on Gal-4 hPPARβ/δ and 51 to 200 nM at Gal-4 hPPARγ. For the same molecule, the figures for the half-life at 4.9 µM with pig liver esterase (setting [1]) and in the data set with pig liver esterase (setting [2]) were over 120 min and under 5 min, respectively.
